Experiments:
[1] = tested on: TDP-43 G298S iMNs; test: Survival of TARDBP ALS iMNs; type: cell-based, human; conditions: neurotrophic factor withdrawal; DMSO or 3 uM apilimod
Procedure: (A) Survival of control or SOD1 A4V iMNs with DMSO or 3 uM apilimod. (B) Survival of TDP-43 G298S iMNs with DMSO or 3 uM apilimod. (C) Survival of MAPT V337M or isogenic control iNs.
PIKFYVE inhibition rescues the survival of TARDBP ALS, SOD1 ALS, and MAPT FTD patient neurons. Since the accumulation of misfolded proteins is a common disease mechanism in all forms of ALS, FTD, and Alzheimer's disease, it was reasoned that inducing secretory autophagy might rescue neurodegeneration in diverse patients. iMNs were generated from ALS patients harboring mutations in TARDBP or SOD1 as well as NGN2-induced neurons (iNs) from MAPT^V337M FTD. […] 2 additional isogenic pairs of iPSC lines from MAPT FTD patients, 2 additional TARDBP ALS iPSC lines, and 2 additional SOD1 ALS iPSC lines were all obtained.

[2] = tested on: TARDBP iNs; test: Survival of TARDBP FTD iNs; type: cell-based, human; conditions: DMSO or apilimod
From the text: (§1) (A) Survival of C9ORF72 iNs with DMSO or apilimod. Log-rank test, 100 iNs per group. […] Log-rank test, 100 iNs per group. […] Mean+/−s.e.m. Kruskal-Wallis Test.
Thus, a collection of MAPT, C9ORF72, and TARDBP FTD lines that provide relevant models of FTD were established.

[3] = tested on: C9ORF72 FTD iNs; test: Survival of C9ORF72 FTD iNs; type: cell-based, human; conditions: DMSO or apilimod; scrambled or PIKFYVE ASOs
From the text: as §1
(A, B) Survival of C9-FTD iNs treated with DMSO and Apilimod (A) or Apilimod+GW4869 (exocytosis blocker) (B). Log-rank test. 100 iNs per group. iNs quantified from 3 independent replicates per group.
Mutations in MAPT cause FTD with tau aggregates. To determine if iNs from FTD patients display neurodegenerative phenotypes, an established method to generate cortical neurons from iPSCs by forced expression of NGN2 was used. 3 FTD patient iPSC lines harboring a MAPTV337M mutation and their CRISPR-edited isogenic controls from a published cell bank were utilized. Neurons from MAPT-mutant iPSCs display increased phosphorylated and oligomeric tau, similar to post-mortem patient tissue (FIG. 18A). […] Thus, MAPT iNs display key features of FTD with tau pathology.
Thus, C9ORF72 iNs provide a robust model of FTD.
PIKFYVE inhibition rescues neurodegeneration through secretory autophagy.

[4] = Apilimod pharmacokinetics (CSF concentration after oral dosing); type: in vivo
From the text: All doses rescue iMN survival.
Testing the safety of ASO-mediated suppression of PIKFYVE as a therapeutic strategy. […] While it may be possible to generate a suitable PIKFYVE inhibitor using medicinal chemistry, this is an expensive and time-consuming endeavor. In contrast to small molecules, ASOs provide a facile approach to targeting the CNS because they can be injected directly into the spinal cord, achieve sustained target engagement throughout the CNS, and are less likely to cause peripheral toxicity. Thus, ASO-mediated PIKFYVE suppression was tested as a therapeutic approach for ALS, FTD, and Alzheimer's disease.

[5] = tested on: control iMNs
Procedure: Drug screening iMNs from both C90RF72 and sporadic ALS patients. […] Chemical screens were then performed to search for targets that can rescue the degeneration of iMNs from multiple patients. 2000 approved drugs and 1800 target-annotated tool compounds were screened on C9ORF72 ALS/FTD iMNs.

[6] = tested on: Optineurin (OPTN); test: Optineurin in CSF of mice after intracerebroventricular apilimod; type: in vivo; conditions: intracerebroventricular injection into adult mice; mass spectrometry; apilimod vs vehicle
Procedure: (A) Mass spectrometry analysis of Optineurin (OPTN) levels in the cerebrospinal fluide (CSF) of mice 2 hours after direct intracerebroventral injection of a vehicle control or apilimod. n=3 mice per group. The ratio of Optineurin in the CSF of apilimod:vehicle-injected mice is shown. (B) Poly(GR)+ DPR punctae in wild-type or C9ORF72 mice treated with intracerebroventricular injection of apilimod for 48 hours. Mean+/−s.e.m. Data points are individual neurons taken across 3 mice per group. One-way ANOVA. […] Unpaired t-test. (D) Pikfyve qRT-PCR of whole brain. n=3 mice per group at postnatal day 7. Unpaired t-test. (E) Gait impairment scoring in wild-type (WT) and TDP-43 homozygous mice treated with a negative control (NC) ASO or Pikfyve ASO at postnatal day 1. Mean+/−s.e.m. Unpaired t-test at each time point between the negative control and Pikfyve ASO conditions for TDP-43 mice. A score of 0 indicates no phenotype and 4 indicates the most severe phenotype. (F) Vehicle or GW4869 were delivered by intraperitoneal injection every 48 h starting from day 6 in negative control and Pikfyve ASO-treated mice. Mean+/−s.e.m. One-way ANOVA at each time point between the four conditions. *p<0.05, **p<0.01, ***p<0.001, ****p<0.0001.
PIKFYVE inhibition rescues neurodegeneration in vivo. […]

[7] = tested on: TDP-43; test: Nuclear:cytoplasmic TDP-43 in C9ORF72 ALS/FTD iMNs; type: cell-based, human; conditions: DMSO or apilimod
[8] = tested on: C9-ALS/FTD iMNs; test: Exosome secretion from iMNs; type: cell-based, human
From the text: (A) Western blot of TSG101, TDP-43, and Neurofilament heavy chain levels in the exosome fraction secreted from control or C9-ALS/FTD iMNs upon apilimod treatment. […] Kruskal-Wallis test for B, C. N=3 biological replicates per condition, one line per genotype. (D) Number of poly(GR)-GFP+ exosomes secreted from iMNs expressing exogenous poly(GR)-GFP upon DMSO or apilimod treatment. N=4 biological replicates. Exosomes were labeled with CFSE-red dye to enable detection by FACS. Unpaired t-test.
Blocking PIKFYVE activity induces secretory autophagy. […] Thus, secretory autophagy maintains proteostasis and prevents neuronal death in TDP-43 mouse models. PIKFYVE inhibition blocks autophagosome-lysosome fusion by […] their ratio in endosomal, lysosomal and autophagosomal membranes. One might expect this to be detrimental to ALS iMNs, which can degenerate due to misfolded protein accumulation. However, inhibition of autophagosome-lysosome fusion using PIKFYVE inhibition or bafilomycin can activate secretory autophagy to jettison misfolded proteins from cells. […] To test this hypothesis, exosomal release in human iMNs upon PIKFYVE inhibition was examined. […] Thus, PIKFYVE inhibition induces the secretion of TDP-43 and C9ORF72 DPRs from iMNs.
Determining if PIKFYVE suppression rescues neurodegeneration through secretory autophagy. […] ASOs were designed targeting […]. It was confirmed that the ASOs suppressed RAB27A expression in iMNs.

metabolic stability in vivo ([4]; in vivo): poor metabolic stability in vivo
SMILES: Cc1cccc(/C=N/Nc2cc(N3CCOCC3)nc(OCCc3ccccn3)n2)c1 [apilimod]
survival of TARDBP ALS iMNs [1]: rescued the survival
survival of TARDBP iNs [2]: potently rescued
survival of C9ORF72 iNs [3]: also rescued C9ORF72
brain exposure ([4]; oral dosing at 100 mg/kg, CSF concentration): does not achieve sufficient brain exposure
control iMN survival [5]: did not
increase in CSF OPTN levels [6]: 18 fold
nuclear localization of TDP-43 in C9ORF72 iMNs [7]: rescued the nuclear localization of TDP-43
poly(GR)-GFP+ exosomes released from iMNs ([8]; iMNs expressing poly(GR)50-GFP, FACS): released significantly more poly(GR)-GFP+ exosomes
TDP-43 in exosomes from C9ORF72 ALS iMNs ([8]; western blot of exosome fraction): contained high levels of TDP-43
release of TSG101+ exosomes from iMNs ([8]; western blotting): significantly increased the release of TSG101+ exosomes

— patent US20230098111A1, “COMPOSITIONS AND METHODS TO TREAT NEUROLOGICAL DISEASES” (University of Southern California, priority 2020, published 2023)
